Measured values as given in article PMC11460632, “Chemical modification of hyaluronan oligosaccharides differentially modulates hyaluronan–hyaladherin interactions” (The Journal of Biological Chemistry, 2024).
Entries after “also recorded” stand apart in the source; their conditions may differ. Read-outs that look alike come from different tables or passages of the source.

What was measured:
Link_TSG6 = biological target: T1, Link_TSG6 (Homo sapiens, UniProt P98066); assay: ITC of HA oligosaccharides binding to Link_TSG6; conditions: for % of binding to Link_TSG6 compared to the unmodified oligosaccharide of the same length / N / ΔG / ΔH / −TΔS / Kd: ITC; for N / ΔG / ΔH / −TΔS / Kd: 25 °C, 5 mM MES pH 6.0, mean ± SEM; for N: 0.029 mM Link_TSG6, 0.29 mM oligosaccharide; for N / Kd: four titrations; for Kd: read-out: KD; for % Binding affinity Link_TSG6: Table 6, relative to unmodified oligosaccharide of the same length, by ITC
T1 construct: made in house
T1 sequence (P98066 36-129 limits assumed): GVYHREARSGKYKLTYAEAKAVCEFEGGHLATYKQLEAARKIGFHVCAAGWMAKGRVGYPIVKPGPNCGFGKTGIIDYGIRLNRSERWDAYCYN
Experimental: ITC experiments were performed using a MicroCal PEAQ-ITC instrument (Malvern Instruments). Oligosaccharide stock solutions were prepared at 0.29 mM (in 5 mM MES, pH 6.0) and injected (18 × 2 μl with 120 s spacing between injections) into the cell containing ∼200 μl Link_TSG6 (0.029 mM) in matched buffer at 25 °C. Data were fit to a one site binding model, after subtracting the heats from the last three injections to account for heat of dilution of the oligosaccharide into buffer. Each oligosaccharide was analyzed in four independently performed ITC experiments.

recombinant human TSG-6 = biological target: T2, recombinant human TSG-6 (Homo sapiens, UniProt P19827+P98066); assay: In vitro HC-transfer assay (IαI + rhTSG-6, Western blot anti-HC1); type: biochemical; conditions: 15 μM HA, 1.8 μM IαI, rhTSG-6, 2 h at 37 °C; for Substrate for HC transfer: Table 6; for Activity as substrate for HC transfer (text): Western blot anti-HC1
T2 construct: TSG-6–mediated HC-transfer assays (using full-length TSG6); purchased R&D Systems
T2 sequence (P98066 18-277): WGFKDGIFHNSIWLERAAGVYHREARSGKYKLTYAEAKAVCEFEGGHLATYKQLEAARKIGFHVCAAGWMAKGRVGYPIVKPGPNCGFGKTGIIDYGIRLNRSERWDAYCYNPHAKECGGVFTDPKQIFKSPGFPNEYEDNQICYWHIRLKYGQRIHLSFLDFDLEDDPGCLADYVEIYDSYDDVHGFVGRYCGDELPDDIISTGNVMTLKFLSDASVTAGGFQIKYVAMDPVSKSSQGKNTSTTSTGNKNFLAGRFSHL
T2 sequence (P19827 35-672 limits assumed): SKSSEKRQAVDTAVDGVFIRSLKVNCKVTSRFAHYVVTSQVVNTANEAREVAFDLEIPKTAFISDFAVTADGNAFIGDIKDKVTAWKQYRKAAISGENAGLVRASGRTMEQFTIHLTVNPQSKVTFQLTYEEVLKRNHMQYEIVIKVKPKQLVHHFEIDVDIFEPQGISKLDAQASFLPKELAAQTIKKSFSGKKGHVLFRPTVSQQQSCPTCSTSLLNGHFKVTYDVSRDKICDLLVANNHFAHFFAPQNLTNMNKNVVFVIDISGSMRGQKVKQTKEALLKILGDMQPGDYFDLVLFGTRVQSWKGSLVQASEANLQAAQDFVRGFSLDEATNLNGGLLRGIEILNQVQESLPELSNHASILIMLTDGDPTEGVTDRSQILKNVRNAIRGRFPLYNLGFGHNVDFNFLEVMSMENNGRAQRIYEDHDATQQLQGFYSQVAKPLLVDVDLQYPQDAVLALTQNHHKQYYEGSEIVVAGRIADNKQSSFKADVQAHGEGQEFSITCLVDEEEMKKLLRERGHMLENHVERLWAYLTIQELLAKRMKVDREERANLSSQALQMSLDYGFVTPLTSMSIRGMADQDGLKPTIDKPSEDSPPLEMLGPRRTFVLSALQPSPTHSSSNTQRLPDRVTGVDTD
Experimental: Covalent transfer of HC from IαI onto unmodified and chemically modified HA oligosaccharides was analyzed using the assay described previously ([26]). All reactions were performed using a buffer of 20 mM Hepes, pH 7.5, 150 mM NaCl, and 5 mM MgCl2. In a “standard” assay, HA oligosaccharides were at 15 μM, human IαI ([97]) 1.8 at μM (based on a molecular weight of 180 kDa), and recombinant human TSG-6 (R&D Systems) at 2.8 μM (based on a molecular weight of 35 kDa). Reaction mixtures were analyzed by SDS-PAGE using 4 to 12% bis-tris polyacrylamide gels (Invitrogen). For Western blot analysis, proteins were transferred onto nitrocellulose membrane (GE Healthcare) and incubated with antisera against HC1 (CP7, 1:10,000; ([98])). Bound primary antibody was detected using goat-anti-rabbit IgG conjugated to IR dye (LI-COR Biosciences) and blots imaged using an Odyssey Clx near-IR fluorescence imaging system (LICOR Biosciences).

hisCD44_HABD^20–169 = biological target: T3, hisCD44_HABD^20–169 (Homo sapiens, UniProt P16070); assay: MST of HA oligosaccharides binding to hisCD44_HABD^20–169; conditions: for Kd: 10 mM Hepes pH 7.5, 150 mM NaCl, 0.05% Tween-20, 25 °C, three titrations, read-out: KD; for % Binding affinity hisCD44_HABD^20–169: Table 6, relative to unmodified oligosaccharide of the same length, by MST
T3 construct: A novel construct consisting of residues 20 to 169 of human CD44 and an N-terminal six-histidine tag; made in house
T3 sequence (P16070 20-169): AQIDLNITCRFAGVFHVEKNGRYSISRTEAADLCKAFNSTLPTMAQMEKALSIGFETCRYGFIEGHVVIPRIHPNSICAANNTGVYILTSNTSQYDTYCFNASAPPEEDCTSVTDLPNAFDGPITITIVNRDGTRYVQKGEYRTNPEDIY
Experimental: For hisCD44_HABD^20–169, interactions with HA oligosaccharides were assessed using MST. Protein (200 nM) was labeled with 5 μM red-Tris-NTA-650 dye following the manufacturer’s instructions in 10 mM Hepes, pH 7.4, 150 mM NaCl, 0.05% (v/v) Tween-20 (interaction buffer). Stock solutions of HA oligosaccharides (5 mM in interaction buffer) were serially diluted (1:1 in interaction buffer) 16 times before each concentration was mixed with an equal volume of labeled protein (10 nM final concentration hisCD44_HABD^20–169). Samples were loaded into standard glass capillaries (NanoTemper) and thermophoresis measured at 25 °C (with active temperature control) using a Monolith NT.115pico instrument (NanoTemper) running NT Control software (version 1.0.1). All experiments were performed in triplicate and data analyzed with the “KD fit model” in the NT Analysis software (version 2.0.2).

| SMILES | % of binding to Link_TSG6 compared to the unmodified oligosaccharide of the same length (Link_TSG6) [%] | N (Link_TSG6; Table 4) | ΔG (Link_TSG6; Table 4) [kcal/mol] | ΔH (Link_TSG6; Table 4) [kcal/mol] | −TΔS (Link_TSG6; Table 4) [kcal•mol^a1] | Kd (Link_TSG6; Table 4) [µM] | % Binding affinity Link_TSG6 (Link_TSG6) [%] | Substrate for HC transfer (recombinant human TSG-6) | Activity as substrate for HC transfer (text) (recombinant human TSG-6) | % of binding to hisCD44_HABD^20–169 compared to the unmodified oligosaccharide of the same length (hisCD44_HABD^20–169; MST) [%] | % HAx^AN: percentage of binding affinity (KB) compared to the unmodified oligosaccharide of the same length (hisCD44_HABD^20–169; Table 5, MST) [%] | Kd (hisCD44_HABD^20–169; Table 5, MST, mean ± SD) [µM] | % Binding affinity hisCD44_HABD^20–169 (hisCD44_HABD^20–169) [%] | also measured |
| --- | --- | --- | --- | --- | --- | --- | --- | --- | --- | --- | --- | --- | --- | --- |
| CC(=O)N[C@H]1[C@H](O[C@H]2[C@H](O)[C@@H](O)[C@H](O[C@H]3[C@H](O)[C@@H](CO)O[C@@H](O[C@H]4[C@H](O)[C@@H](O)[C@H](O[C@@H]([C@H](O)[C@H](O)CO)[C@H](CNc5ccc6c(c5)CCC6)NC(C)=O)O[C@@H]4C(=O)O)[C@@H]3NC(C)=O)O[C@@H]2C(=O)O)O[C@H](CO)[C@@H](O)[C@@H]1O[C@@H]1O[C@H](C(=O)O)[C@@H](O)[C@H](O)[C@H]1O [HA6-5AI] | ~162 | 1.03 ± 0.02 | -8.43 ± 0.08 | -7.46 ± 0.37 | −0.96 ± 0.42 | 0.68 ± 0.08 | 162 | No | No HC•HA6 complexes were observed | 133 | 133 | 77 ± 12 | 133 | Fold increase in affinity for CD44_HABD compared to the unmodified oligosaccharide (hisCD44_HABD^20–169; MST): 1.3 fold |
| CC(=O)N[C@H]1[C@H](O[C@H]2[C@H](O)[C@@H](O)[C@H](O[C@H]3[C@H](O)[C@@H](CO)O[C@@H](O[C@H]4[C@H](O)[C@@H](O)[C@H](O[C@H]5[C@H](O)[C@@H](CO)O[C@@H](O[C@H]6[C@H](O)[C@@H](O)[C@H](O[C@@H]([C@H](O)[C@H](O)CO)[C@H](CNc7cccc8c7CCC8)NC(C)=O)O[C@@H]6C(=O)O)[C@@H]5NC(C)=O)O[C@@H]4C(=O)O)[C@@H]3NC(C)=O)O[C@@H]2C(=O)O)O[C@H](CO)[C@@H](O)[C@@H]1O[C@@H]1O[C@H](C(=O)O)[C@@H](O)[C@H](O)[C@H]1O [HA8-4AI] |  | 1.01 ± 0.02 | -9.15 ± 0.16 | -7.02 ± 0.40 | −2.13 ± 0.53 | 0.22 ± 0.05 | 141 | Yes |  | 37 | 37 | 139 ± 43 | 37 |  |
| CC(=O)N[C@H]1[C@H](O[C@H]2[C@H](O)[C@@H](O)[C@H](O[C@H]3[C@H](O)[C@@H](CO)O[C@@H](O[C@H]4[C@H](O)[C@@H](O)[C@H](O[C@@H]([C@H](O)[C@H](O)CO)[C@H](CNc5cc[nH]n5)NC(C)=O)O[C@@H]4C(=O)O)[C@@H]3NC(C)=O)O[C@@H]2C(=O)O)O[C@H](CO)[C@@H](O)[C@@H]1O[C@@H]1O[C@H](C(=O)O)[C@@H](O)[C@H](O)[C@H]1O [HA6-3APY] |  | 0.93 ± 0.02 | -7.77 ± 0.15 | -7.82 ± 0.73 | 0.04 ± 0.87 | 2.24 ± 0.68 | 49 | Yes | good substrates; also recorded: could become covalently coupled to an HC | 91 | 91 | 113 ± 6 | 91 |  |
| CC(=O)N[C@H]1[C@H](O[C@H]2[C@H](O)[C@@H](O)[C@H](O[C@H]3[C@H](O)[C@@H](CO)O[C@@H](O[C@H]4[C@H](O)[C@@H](O)[C@H](O[C@H]5[C@H](O)[C@@H](CO)O[C@@H](O[C@H]6[C@H](O)[C@@H](O)[C@H](O[C@@H]([C@H](O)[C@H](O)CO)[C@H](CNc7ccc8c(c7)CCC8)NC(C)=O)O[C@@H]6C(=O)O)[C@@H]5NC(C)=O)O[C@@H]4C(=O)O)[C@@H]3NC(C)=O)O[C@@H]2C(=O)O)O[C@H](CO)[C@@H](O)[C@@H]1O[C@@H]1O[C@H](C(=O)O)[C@@H](O)[C@H](O)[C@H]1O [HA8-5AI] | 207 | 0.97 ± 0.02 | -9.34 ± 0.11 | -7.43 ± 0.25 | −1.91 ± 0.33 | 0.15 ± 0.03 | 207 | Yes |  | 96 | 96 | 54 ± 10 | 96 |  |
| CC(=O)N[C@H]1[C@H](O[C@H]2[C@H](O)[C@@H](O)[C@H](O[C@H]3[C@H](O)[C@@H](CO)O[C@@H](O[C@H]4[C@H](O)[C@@H](O)[C@H](O[C@H]5[C@H](O)[C@@H](CO)O[C@@H](O[C@H]6[C@H](O)[C@@H](O)[C@H](O[C@@H]([C@H](O)[C@H](O)CO)[C@H](CNc7cc[nH]n7)NC(C)=O)O[C@@H]6C(=O)O)[C@@H]5NC(C)=O)O[C@@H]4C(=O)O)[C@@H]3NC(C)=O)O[C@@H]2C(=O)O)O[C@H](CO)[C@@H](O)[C@@H]1O[C@@H]1O[C@H](C(=O)O)[C@@H](O)[C@H](O)[C@H]1O [HA8-3APY] |  | 1.19 ± 0.06 | -8.97 ± 0.07 | -5.70 ± 0.34 | −3.28 ± 0.28 | 0.27 ± 0.03 | 115 | Yes |  | 23 | 23 | 220 ± 22 | 23 |  |
| CC(=O)N[C@H]1[C@H](O[C@H]2[C@H](O)[C@@H](O)[C@H](O[C@H]3[C@H](O)[C@@H](CO)O[C@@H](O[C@H]4[C@H](O)[C@@H](O)[C@H](O[C@H]5[C@H](O)[C@@H](CO)OC(O)[C@@H]5NC(C)=O)O[C@@H]4C(=O)O)[C@@H]3NC(C)=O)O[C@@H]2C(=O)O)O[C@H](CO)[C@@H](O)[C@@H]1O[C@@H]1O[C@H](C(=O)O)[C@@H](O)[C@H](O)[C@H]1O (stereo partly shown) [HA6^AN, reference compound] |  |  |  |  | 0.162 ± 0.21 |  | 100 | No | did not |  | 100 |  | 100 | N (Link_TSG6; Table 1): 1.04 ± 0.04; ΔG (Link_TSG6; Table 1): -8.13 ± 0.02 kcal/mol; ΔH (Link_TSG6; Table 1): -8.29 ± 0.19 kcal/mol; −TΔS (Link_TSG6; Table 1): 0.162 ± 0.21 kcal/mol; Kd (Link_TSG6; Table 1): 1.09 ± 0.04 µM; % HAn^AN: percentage of binding affinity (KB) compared to the unmodified oligosaccharide of the same length (hisCD44_HABD^20–169; Table 2, MST): 100%; Kd (hisCD44_HABD^20–169; Table 2, MST, mean (±SD)): 103 µM |
